pIC50: −log10 of the molar value.
Legend:
Assay type in all cases: cell-based, human
HCT116 cells = assay: siRNA sensitization of Enzastaurin drug response, CellTiter Glo cell viability; conditions: for pIC50: Homo sapiens, HCT-116, 72 h, 72 h Enzastaurin
Description: HCT116 cells are obtained from American Tissue Culture Collection, ATCC (Rockville, Md., USA) and cultured in McCoy's 5A medium supplemented with 2 mM L-glutamine and 10% fetal bovine serum (FBS), in a humidified 37° C. incubator with 5% CO2. Plates (384-well) are pre-printed using 2 siRNAs per target in the Druggable Genome v2 Library (Qiagen) such that each well contains 13 nM of an individual siRNA duplex. High throughput reverse transfections are performed by adding transfection agent Lipofectamine 2000 (Invitrogen) and 1500 cells diluted in McCoy's 5A medium supplemented with 2 mM L-glutamine and 2% FBS into each well following a standard reverse transfection protocol. Twenty-four hours post transfection, each assay plate is treated with or without 5 concentrations (0-10 μM) of Enzastaurin in 1% DMSO. Seventy-two hours later, cell viability is measured using chemiluminescence based CellTiter Glo (Promega) assay readout, according to manufacturer's recommendations. UBB siRNA (Qiagen) is the positive cell killing control and All Star Non-silencing (NS-AS) or green fluorescent protein (GFP) is the negative control. Raw signal values are normalized to untreated control wells to compare across plates. These are fit to a 4-parameter logistical model to determine IC50 values. A ‘shift’ in IC50 with respect to the negative control (described above) is calculated as: (IC50 target−IC50 control) divided by IC50 control.

HCT116 (HDAC 2 w.t) = assay: Enzastaurin drug dose response, CellTiter Glo cell viability; conditions: HCT116 cells
Description: (§1) The human colon cancer cell line, HCT116 (HDAC 2 w.t), and RKO (HDAC 2+/−), a cell line containing a nonsense mutation resulting in null protein expression of HDAC2 relative to HCT116, are obtained from American Tissue Culture Collection, ATCC (Rockville, Md., USA) and cultured in the ATCC recommended growth medium supplemented with 2 mM L-glutamine and 10% FBS, in a humidified 37° C. incubator with 5% CO2. Drug dose response experiments are performed by seeding 1000-2000 cells diluted in McCoy's 5A medium containing 25 mM N-2-hydroxyethylpiperazine-N′-2-ethanesulfonic acid (HEPES), 2 mM L-glutamine and 2% fetal bovine serum (FBS) followed by treatment with or without serial dilutions of Enzastaurin (0-100 μM) in 1% DMSO. Seventy-two or ninety-six hours later, cell viability is measured using chemiluminescence based CellTiter Glo (Promega) assay readout, according to manufacturer's recommendations. Raw signal values are normalized to untreated control and analyzed by non-linear curve fitting in GraphPad Prism (La Jolla, Calif., USA).

RKO (HDAC 2+/−) = assay: as above; conditions: RKO cells
Description: as §1

With `Cn1cc(C2=C(c3cn(C4CCN(Cc5ccccn5)CC4)c4ccccc34)C(=O)NC2=O)c2ccccc21` [Enzastaurin, 3-(1-methyl-1H-indol-3-yl)-4-[1-[1-(pyridin-2-ylmethyl)piperidin-4-yl]-1H-indol-3-yl]-1H-pyrrole-2,5-dione] the “shift in IC50 values relative to negative control” value (HCT116 cells; HCT116, three siRNAs that target HDAC2) was greater than 2 fold, the “cell killing in high content images” value (HCT116 cells; HCT116 treated with Enzastaurin and HDAC2 siRNA relative to negative controls and either condition alone, data not shown) was “higher degree of cell killing” and the pIC50 (HCT116 cells; HCT116, HDAC2 siRNA: None (negative control)) was 5.43. The pIC50 (HCT116 cells; HCT116 transfected with HDAC2 siRNA SEQ ID NO: 1) was 5.87, the pIC50 (HCT116 cells; HCT116 transfected with HDAC2 siRNA SEQ ID NO: 2) was 5.77 and the pIC50 (HCT116 cells; HCT116 transfected with HDAC2 siRNA SEQ ID NO: 3) was 5.70. For the same compound, the maximum killing effect (HCT116 (HDAC 2 w.t)) was 50-60%, the pIC50 (HCT116 (HDAC 2 w.t); Homo sapiens, HCT-116, 72 or 96 h) was 5.08 and the pIC50 (RKO (HDAC 2+/−); Homo sapiens, 72 or 96 h) was 5.45. The maximum killing effect (RKO (HDAC 2+/−)) was 95-100%.
